Test results as given in publication PMC7822874, “Chemoprotective antimalarials identified through quantitative high-throughput screening of Plasmodium blood and liver stage parasites” (Scientific Reports, 2021).
Where “and” joins values, the source holds several entries; their conditions need not be identical. Identical values can stand only once. Like-named read-outs stand apart in the source and are kept apart here.

What was measured:
[1] = system: T1, Plasmodium falciparum Dd2-attB (parental line), asexual blood stages; experiment: microbe, parasite or virus in culture; design: replicate k of 3 (each line is one of three independent assays; the three lines of one compound and parasite line follow each other); details: n = 1; for Individual replicates / Log AC50 (M): 72 h; for AC50: Plasmodium falciparum, DD2, 72 h, read-out: Individual replicates / Log AC50 (converted)
T1 construct: Dd2-attB, the isogenic parental line
Summary of the method: (§1)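 Only some compounds were profiled here. Each was assayed three independent times against the Dd2-attB parent and its yeast-DHODH-overexpressing derivative.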

[2] = system: T2, Plasmodium falciparum Dd2-attB-ScDHODH (transgenic line expressing yeast DHODH), asexual blood stages; experiment: organism not typed; design: replicate k of 3 (each line is one of three independent assays; the three lines of one compound and parasite line follow each other); details: 72 h, n = 1
T2 construct: Dd2-attB-ScDHODH, the transgenic line that expresses yeast DHODH
Summary of the method: as §1

in vitro [3] = details: human, HepG2 cells; n = 1
[4] = system: P. berghei-ANKA-GFP-LucCON liver stage parasites in HepG2-A16-CD81EGFP cells; experiment: P. berghei liver stage Pb-Luc assay, Method 1 (UCSD, 1536-well); type: cell-based, Plasmodium berghei; details: Plasmodium berghei, 48 h, average of 2 wells on a 1536 well plate
[5] = system: luciferase-expressing P. berghei liver stage parasites in HepG2 cells; experiment: Inhibition of liver-stage development assay (ILSDA), Method 2 (WRAIR, 96-well); type: cell-based, Plasmodium berghei; details: for Max Resp (signal direction of the dose response): Method 2, Decrease = decreasing P. berghei viability with dose, Increase = increasing signal, Inactive = no dose response; for AC50: Plasmodium berghei, HepG2, Method 2
[6] = system: Plasmodium falciparum Dd2 asexual blood stage parasites; experiment: microbe, parasite or virus in culture; design: species or system Plasmodium falciparum Dd2 in human erythrocytes; single determination (one 11-point concentration-response curve); details: Plasmodium falciparum, DD2, Erythrocyte, 72 h; read-out: AC50
in vitro [7] = details: human, HepG2-A16-CD81EGFP cells, uninfected
HepG2-A16-CD81EGFP cells = details: average of 2 wells
[8] = 1 uM (compounds provided at 10 mM), column 11, read-out: Pb-Luc (P. berghei liver stage), % of control, lower concentration, first repeat
[9] = 1 uM (compounds provided at 10 mM), column 12, read-out: Pb-Luc (P. berghei liver stage), % of control, lower concentration, second repeat
[10] = 3 uM (compounds provided at 10 mM), column 8, read-out: Pb-Luc (P. berghei liver stage), % of control, higher concentration, first repeat
[11] = 3 uM (compounds provided at 10 mM), column 9, read-out: Pb-Luc (P. berghei liver stage), % of control, higher concentration, second repeat
[12] = Hill fit, 50% of maximum activity response, read-out: AC50
[13] = log10 of molar AC50 from Hill fit, read-out: Log AC50 (converted)

## CN(C)C1CCN(Cc2cc(COCc3ccccc3)c3cccnc3c2O)C1 (stereo not drawn) [NCGC00183372-01]
[1]
  Individual replicates / Log AC50 (M): -5.2486 Log AC50 (M) and -5.1486 Log AC50 (M)
  AC50: 5.03 µM
[2]
  Individual replicates / Log AC50 (M): -5.2986 Log AC50 (M) and -5.1986 Log AC50 (M) and -4.7986 Log AC50 (M)
In vitro [3]
  CC50 at 48 h: 21.7 µM

## O=c1cc(CSc2ccc(Cl)cc2)nc(-c2ccccn2)[nH]1 [MLS001166297-01]
[4]; [8]
  activity at 1 µM: 17%
[4]; [9]
  activity at 1 µM: 15%
[4]; [10]
  activity at 3 µM: 8%
[4]; [11]
  activity at 3 µM: 5%
[5]
  Max Resp (signal direction of the dose response): Inactive
[6]
  AC50: 5.96 µM
In vitro [7]
  viability at 48 h, 1 µM: 92%
  viability at 48 h, 3 µM: 73%
In vitro [3]
  CC50 at 48 h: 12.2 µM

## Oc1c(CN2CCCC2)cc(COCc2ccccc2)c2cccnc12 [NCGC00183371-01]
[6]
  AC50: 6.68 µM
[1]
  Individual replicates / Log AC50 (M): -5.2986 Log AC50 (M) and -5.1986 Log AC50 (M)
  AC50: 3.99 µM
[2]
  Individual replicates / Log AC50 (M): -4.7986 Log AC50 (M) and -5.1486 Log AC50 (M)
In vitro [3]
  CC50 at 48 h: 8.62 µM

## Oc1c(CN2CCCCC2)cc(COCc2ccccc2)c2cccnc12 [NCGC00052274-02]
[6]
  AC50: 8.41 µM
[1]
  Individual replicates / Log AC50 (M): -5.4486 Log AC50 (M) and -5.3486 Log AC50 (M)
  AC50: 5.64 µM
[2]
  Individual replicates / Log AC50 (M): -5.4986 Log AC50 (M)
[2]; read-out: Individual replicates / Log AC50 (converted)
  AC50: 5.03 µM
In vitro [3]
  CC50 at 48 h: 6.85 µM

## O=C(Nc1ccccc1O)c1ccc(NC(=O)C2CC2)cc1 [MLS001162082-01]
[4]; [8]
  activity at 1 µM: 40%
[4]; [9]
  activity at 1 µM: 37%
[4]; [10]
  activity at 3 µM: 10%
[4]; [11]
  activity at 3 µM: 10%
[5]
  Max Resp (signal direction of the dose response): Decrease
[5]; [12]
  AC50: 2.24 µM
[5]; [13]
  AC50: 2.24 µM
[6]
  AC50: 4.73 µM
In vitro [7]
  viability at 48 h, 1 µM: 114%
  viability at 48 h, 3 µM: 108%
In vitro [3]
  CC50 at 48 h: 10.9 µM

## Cc1nc2ccc(NC(=O)c3cc(S(=O)(=O)N(C)c4ccccc4)ccc3Cl)cc2s1 [MLS000393823-01]
[4]; P. berghei liver stage, 1 µM compound treatment (10 mM stocks), replicate 1, normalized, read-out: PbLuc 1uM growth rep1
  activity at 1 µM: 19%
[4]; P. berghei liver stage, 1 µM compound treatment (10 mM stocks), replicate 2, normalized, read-out: PbLuc 1uM growth rep2
  activity at 1 µM: 15%
[4]; P. berghei liver stage, 3 µM compound treatment (10 mM stocks), replicate 1, normalized, read-out: PbLuc 3uM growth rep1
  activity at 3 µM: 3.66%
[4]; P. berghei liver stage, 3 µM compound treatment (10 mM stocks), replicate 2, normalized, read-out: PbLuc 3uM growth rep2
  activity at 3 µM: 5.53%
[5]
  Max Resp (signal direction of the dose response): Decrease
[5]; [12]
  AC50: 0.501 µM
[5]; [13]
  AC50: 0.501 µM
[6]
  AC50: 0.841 µM
HepG2-A16-CD81EGFP cells; HepG2, 1 µM compound treatment (10 mM stocks), replicate 1, normalized
  HepG2 1uM growth rep1: 61%
HepG2-A16-CD81EGFP cells; HepG2, 1 µM compound treatment (10 mM stocks), replicate 2, normalized
  HepG2 1uM growth rep2: 56%
HepG2-A16-CD81EGFP cells; HepG2, 3 µM compound treatment (10 mM stocks), replicate 1, normalized
  HepG2 3uM growth rep1: 59%
HepG2-A16-CD81EGFP cells; HepG2, 3 µM compound treatment (10 mM stocks), replicate 2, normalized
  HepG2 3uM growth rep2: 60%
In vitro [3]
  CC50 at 48 h: 9.68 µM
